Experimental data reported in US9624170B2, “4-(piperrazin-1-yl)-pyrrolidin-2-one compounds as monoacylglycerol lipase (MAGL) inhibitors” (TAKEDA PHARMACEUTICAL COMPANY LIMITED, priority 2013, dated 2017).

Target: T1, human MAGL (His-hMAGL) (Homo sapiens, UniProt Q99685)
T1 construct: made in house; host or cells: Escherichia coli BL21(DE3)
T1 sequence (Q99685 1-303): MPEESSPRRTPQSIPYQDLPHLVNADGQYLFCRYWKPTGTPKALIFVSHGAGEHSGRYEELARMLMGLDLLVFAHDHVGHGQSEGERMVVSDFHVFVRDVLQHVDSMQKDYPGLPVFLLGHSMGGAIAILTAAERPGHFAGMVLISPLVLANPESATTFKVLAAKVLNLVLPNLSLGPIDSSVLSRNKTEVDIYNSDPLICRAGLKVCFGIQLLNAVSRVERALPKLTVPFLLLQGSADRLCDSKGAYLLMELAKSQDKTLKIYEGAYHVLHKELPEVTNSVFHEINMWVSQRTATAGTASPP
Assay: Measurement of MAGL inhibitory activity by mass spectrometry
Type: biochemical
Settings: MAGL inhibitory rate, test compound 10 μM, His-hMAGL, substrate 2-arachidonylglycerol, RapidFire-mass spectrometry
In short: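 His-tagged human MAGL was reacted with 150 μM 2-arachidonylglycerol substrate (stock, added by 5 μL) for 10 min at room temperature, then stopped with formic acid. Arachidonic acid product was quantified by RapidFire–triple-quadrupole MS in negative SRM mode, corrected by arachidonic acid-d8, and converted to percent inhibition.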

Row | SMILES | inhibition at 10 µM [%]
1 | CC(C)(C)OC(=O)N1CCc2cc(N3CC(N4CCN(C(=O)c5nccs5)CC4)CC3=O)ccc21 (stereo not drawn) [Example 372, tert-Butyl 5-(2-oxo-4-(4-(1,3-thiazol-2-ylcarbonyl)piperazin-1-yl)pyrrolidin-1-yl)indoline-1-carboxylate] | 101
2 | O=C(c1nccs1)N1CCN(C2CC(=O)N(c3ccc4c(c3)CCN4C(=O)C(F)(F)F)C2)CC1 (stereo not drawn) [Example 373, 4-(4-(1,3-Thiazol-2-ylcarbonyl)piperazin-1-yl)-1-(1-(trifluoroacetyl)-2,3-dihydro-1H-indol-5-yl)pyrrolidin-2-one] | 96
3 | O=C(c1nccs1)N1CCN(C2CC(=O)N(c3ccc4c(c3)CCN4C3CC3)C2)CC1 (stereo not drawn) [Example 375, 1-(1-Cyclopropyl-2,3-dihydro-1H-indol-5-yl)-4-(4-(1,3-thiazol-2-ylcarbonyl)piperazin-1-yl)pyrrolidin-2-one] | 95
4 | O=C1CC(N2CCN(c3ncccn3)CC2)CN1c1ccc2c(c1)CCN2c1ncc(C(F)(F)F)cn1 (stereo not drawn) [Example 378, 4-(4-(Pyrimidin-2-yl)piperazin-1-yl)-1-(1-(5-(trifluoromethyl)pyrimidin-2-yl)-2,3-dihydro-1H-indol-5-yl)pyrrolidin-2-one] | 95
5 | CC(C)(C)CC(=O)N1CCc2cc(N3CC(N4CCN(C(=O)c5nccs5)CC4)CC3=O)ccc21 (stereo not drawn) [Example 382, 1-(1-(3,3-Dimethylbutanoyl)-2,3-dihydro-1H-indol-5-yl)-4-(4-(1,3-thiazol-2-ylcarbonyl)piperazin-1-yl)pyrrolidin-2-one] | 99
6 | O=C(c1nccs1)N1CCN([C@@H]2CC(=O)N(c3ccc4c(c3)CCN4c3cc(C(F)(F)F)ncn3)C2)CC1 [Example 385, (4R)-4-(4-(1,3-thiazol-2-ylcarbonyl)piperazin-1-yl)-1-(1-(6-(trifluoromethyl)pyrimidin-4-yl)-2,3-dihydro-1H-indol-5-yl)pyrrolidin-2-one] | 100

The remaining lines, values ahead:

Row | inhibition at 10 µM [%] | SMILES
7 | 104 | O=C(c1nccs1)N1CCN(C2CC(=O)N(c3cccc(-c4cnccc4C(F)(F)F)c3)C2)CC1 (stereo not drawn) [Example 371, 4-(4-(1,3-thiazol-2-ylcarbonyl)piperazin-1-yl)-1-(3-(4-(trifluoromethyl)pyridin-3-yl)phenyl)pyrrolidin-2-one]
8 | 81 | O=C(c1nccs1)N1CCN(C2CC(=O)N(c3ccc4c(c3)CCN4)C2)CC1 (stereo not drawn) [Example 374, 1-(2,3-Dihydro-1H-indol-5-yl)-4-(4-(1,3-thiazol-2-ylcarbonyl)piperazin-1-yl)pyrrolidin-2-one]
9 | 97 | O=C1CC(N2CCN(c3ncccn3)CC2)CN1c1ccc2c(c1)CCN2c1ccnc(C(F)(F)F)c1 (stereo not drawn) [Example 377, 4-(4-(pyrimidin-2-yl)piperazin-1-yl)-1-(1-(2-(trifluoromethyl)pyridin-4-yl)-2,3-dihydro-1H-indol-5-yl)pyrrolidin-2-one]
10 | 98 | O=C(c1nccs1)N1CCN(C2CC(=O)N(c3ccc4c(c3)CCN4c3ccc(C(F)(F)F)cn3)C2)CC1 (stereo not drawn) [Example 383, 4-(4-(1,3-thiazol-2-ylcarbonyl)piperazin-1-yl)-1-(1-(5-(trifluoromethyl)pyridin-2-yl)-2,3-dihydro-1H-indol-5-yl)pyrrolidin-2-one]
11 | 99 | O=C(c1cscn1)N1CCN([C@@H]2CC(=O)N(c3ccc4c(c3)CCN4c3ncc(C(F)(F)F)cn3)C2)CC1 [Example 384, (4R)-4-(4-(1,3-thiazol-4-ylcarbonyl)piperazin-1-yl)-1-(1-(5-(trifluoromethyl)pyrimidin-2-yl)-2,3-dihydro-1H-indol-5-yl)pyrrolidin-2-one]
12 | 99 | O=C(c1nccs1)N1CCN(C2CC(=O)N(c3ccc4oc(-c5ccc(F)cc5)nc4c3)C2)CC1 (stereo not drawn) [Example 386, 1-(2-(4-fluorophenyl)-1,3-benzoxazol-5-yl)-4-(4-(1,3-thiazol-2-ylcarbonyl)piperazin-1-yl)pyrrolidin-2-one]
